Assay results as given in patent US12157730B2, “Heteroaryl derivative, method for producing same, and pharmaceutical composition comprising same as effective component” (VORONOI INC., priority 2019, dated 2024).

biological target: T1, Ba/F3 cell EGFR Exon20 ins NPH (Homo sapiens, UniProt P00533, INS773NPH); experiment: Ba/F3 cell proliferation suppression, EGFR Exon20 ins NPH; format: cell-based; details: GI50 class; Ba/F3 cell line with NPH inserted at Exon20 of EGFR; 72 hours
T1 construct: expressed in transfected cells; host or cells: Ba/F3
Method in brief: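 After 72 h compound exposure (twelve 3-fold steps, 0.3 nM–50 um final), live cells were measured by CellTiter-Glo luminescence and growth expressed as % of control to derive GI50. Cells were seeded at 3000–5000 per well a day earlier; Ba/F3 medium contained IL-3; three repeats.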

Ba/F3 (NPH) Activity	SMILES
A (GI50 < 50 nM)	C=CC(=O)Nc1cc(Nc2cc(N3OCC[C@@H]3c3ccc(F)cc3)ncn2)c(OC)cc1N1CCC(N2C[C@@H](C)O[C@@H](C)C2)CC1 [compound 814, N-(2-(4-((2S,6R)-2,6-dimethylmorpholino)piperidine-1-yl)-5-((6-((R)-3-(4-fluorophenyl)isoxazolidine-2-yl)pyrimidine-4-yl)amino)-4-methoxyphenyl) acrylamide]
B (50 nM ≤ GI50 < 500 nM)	C=CC(=O)Nc1cc(Nc2cc(N3OCC[C@@H]3c3ccc4ccccc4c3)ncn2)c(OC)cc1N1CCC(N2CCN(C)CC2)CC1 [compound 554, N-(4-methoxy-2-(4-(4-methylpiperazine-1-yl)piperidine-1-yl)-5-((6-((R)-3-(naphthalene-2-yl)isoxazolidine-2-yl)pyrimidine-4-yl)amino)phenyl)acrylamide]
A (GI50 < 50 nM)	C=CC(=O)Nc1cc(Nc2cc(N3OCC[C@@H]3c3cc(F)ccc3F)ncn2)c(OC)cc1N1CCC(N2CCN(C3CC3)CC2)CC1 [Example 61, N-(2-(4-(4-cyclopropylpiperazine-1-yl)piperidine-1-yl)-5-((6-((R)-3-(2,5-difluorophenyl)isoxazolidine-2-yl)pyrimidine-4-yl)amino)-4-methoxyphenyl) acrylamide;]
A (GI50 < 50 nM)	C=CC(=O)Nc1cc(Nc2cc(N3OCC[C@@H]3c3cccc(C)c3F)ncn2)c(OC)cc1N1CCN(C2CC2)CC1 [compound 909, N-(2-(4-cyclopropylpiperazine-1-yl)-5-((6-((R)-3-(2-fluoro-3-methylphenyl)isoxazolidine-2-yl)pyrimidine-4-yl)amino)-4-methoxyphenyl) acrylamide]
A (GI50 < 50 nM)	C=CC(=O)Nc1cc(Nc2cc(N3OCC[C@@H]3Cc3ccccc3)ncn2)c(OC)cc1N1CCN(C2CCCC2)CC1 [compound 972, N-(5-((6-((S)-3-benzylisoxazolidine-2-yl)pyrimidine-4-yl)amino)-2-(4-cyclopentylpiperazine-1-yl)-4-methoxyphenyl) acrylamide]
A (GI50 < 50 nM)	C=CC(=O)Nc1cc(Nc2cc(N3OCC[C@@H]3Cc3cccc(Cl)c3Cl)ncn2)c(OC)cc1N1CCC(N2CCN(C3CC3)[C@H](C)C2)CC1 [compound 980, N-(2-(4-((R)-4-cyclopropyl-3-methylpiperazine-1-yl)piperidine-1-yl)-5-((6-((S)-3-(2,3-dichlorobenzyl)isoxazolidine-2-yl)pyrimidine-4-yl)amino)-4-methoxyphenyl) acrylamide]
A (GI50 < 50 nM)	C=CC(=O)Nc1cc(Nc2cc(N3OCC[C@@H]3c3ccc(F)cc3F)ncn2)c(OC)cc1N1C[C@H]2C[C@@H]1CO2 [compound 353, N-(2-((1R,4R)-2-oxa-5-azabicyclo[2.2.1]heptane-5-yl)-5-((6-((R)-3-(2,4-difluorophenyl)isoxazolidine-2-yl)pyrimidine-4-yl)amino)-4-methoxyphenyl) acrylamide]
C (500 nM ≤ GI50 < 5000 nM)	C=CC(=O)Nc1cc(Nc2cc(N3OCC[C@H]3Cc3ccccc3)ncn2)c(OC)cc1N1CCOCC1 [compound 966, N-(5-((6-((R)-3-benzylisoxazolidine-2-yl)pyrimidine-4-yl)amino)-4-methoxy-2-morpholinophenyl) acrylamide]
A (GI50 < 50 nM)	C=CC(=O)Nc1cc(Nc2cc(N3OCC[C@@H]3c3ccccc3)ncn2)c(OC)cc1N1CCC(N2CC[C@H](N(C)C)C2)CC1 [Example 286, N-(2-(4-((S)-3-(dimethylamino)pyrolidine-1-yl)piperidine-1-yl)-4-methoxy-5-((6-((R)-3-phenylisoxazolidine-2-yl)pyrimidine-4-yl)amino)phenyl) acrylamide]
B (50 nM ≤ GI50 < 500 nM)	C=CC(=O)Nc1cc(Nc2cc(N3OCC[C@@H]3c3ccc(Cl)cc3)ncn2)c(OC)cc1N1CC[C@H](N2CCOCC2)C1 [compound 734, N-(5-((6-((R)-3-(4-chlorophenyl)isoxazolidine-2-yl)pyrimidine-4-yl)amino)-4-methoxy-2-((S)-3-morpholinopyrolidine-1-yl)phenyl)acrylamide]
B (50 nM ≤ GI50 < 500 nM)	C=CC(=O)Nc1cc(Nc2cc(N3OCC[C@@H]3c3cccc(Cl)c3F)ncn2)c(OC)cc1N1CCC(N2CCC(N(C)C)CC2)CC1 [compound 915, N-(5-((6-((R)-3-(3-chloro-2-fluorophenyl)isoxazolidine-2-yl)pyrimidine-4-yl)amino)-2-(4-(dimethylamino)-[1,4'-bipiperidine]-1'-yl)-4-methoxyphenyl) acrylamide]
A (GI50 < 50 nM)	C=CC(=O)Nc1cc(Nc2cc(N3OCC[C@@H]3Cc3ccccc3)ncn2)c(OC)cc1N1CCC(N2CCN(C)CC2)CC1 [compound 963, N-(5-((6-((S)-3-benzylisoxazolidine-2-yl)pyrimidine-4-yl)amino)-4-methoxy-2-(4-(4-methylpiperazine-1-yl)piperidine-1-yl)phenyl)acrylamide]
A (GI50 < 50 nM)	C=CC(=O)Nc1cc(Nc2cc(N3OCC[C@@H]3c3ccc(F)c(Cl)c3F)ncn2)c(OC)cc1N1CCC(N2C[C@@H]3C[C@H]2CO3)CC1 [compound 637, N-(2-(4-((1S,4S)-2-oxa-5-azabicyclo[2.2.1]heptane-5-yl)piperidine-1-yl)-5-((6-((R)-3-(3-chloro-2,4-difluorophenyl)isoxazolidine-2-yl)pyrimidine-4-yl)amino)-4-methoxyphenyl) acrylamide]
B (50 nM ≤ GI50 < 500 nM)	C=CC(=O)Nc1cc(Nc2cc(N3OCC[C@@H]3c3cccc4ccccc34)ncn2)c(OC)cc1N1CCC(N2CCN(C3CC3)CC2)CC1 [Example 146, N-(2-(4-(4-cyclopropylpiperazine-1-yl)piperidine-1-yl)-4-methoxy-5-((6-((R)-3-(naphthalene-1-yl)isoxazolidine-2-yl)pyrimidine-4-yl)amino)phenyl)acrylamide]
A (GI50 < 50 nM)	C=CC(=O)Nc1cc(Nc2cc(N3OCC[C@@H]3c3cccc(C#N)c3)ncn2)c(OC)cc1N1CCC(N2CCN(C3CCC3)CC2)CC1 [Example 183, N-(5-((6-((R)-3-(3-cyanophenyl)isoxazolidine-2-yl)pyrimidine-4-yl)amino)-2-(4-(4-cyclobutylpiperazine-1-yl)piperidine-1-yl)-4-methoxyphenyl) acrylamide]
B (50 nM ≤ GI50 < 500 nM)	C=CC(=O)Nc1cc(Nc2cc(N3OCC[C@@H]3c3ccc(Cl)c(Cl)c3)ncn2)c(OC)cc1N1CCC(N2CCN(C(C)C)CC2)CC1 [compound 689, N-(5-((6-((R)-3-(3,4-dichlorophenyl)isoxazolidine-2-yl)pyrimidine-4-yl)amino)-2-(4-(4-isopropylpiperazine-1-yl)piperidine-1-yl)-4-methoxyphenyl) acrylamide]
B (50 nM ≤ GI50 < 500 nM)	C=CC(=O)Nc1cc(Nc2cc(N3OCC[C@@H]3c3cccc(C#N)c3)ncn2)c(OC)cc1N1CCC(O)CC1 [compound 390, N-(5-((6-((R)-3-(3-cyanophenyl)isoxazolidine-2-yl)pyrimidine-4-yl)amino)-2-(4-hydroxypiperidine-1-yl)-4-methoxyphenyl) acrylamide]
C (500 nM ≤ GI50 < 5000 nM)	C=CC(=O)Nc1cc(Nc2cc(N3OCC[C@@H]3Cc3ccccc3)ncn2)c(OC)cc1N1CCC(OCCN(CC)CC)CC1 [compound 978, N-(5-((6-((S)-3-benzylisoxazolidine-2-yl)pyrimidine-4-yl)amino)-2-(4-(2-(diethylamino)ethoxy)piperidine-1-yl)-4-methoxyphenyl) acrylamide]
A (GI50 < 50 nM)	C=CC(=O)Nc1cc(Nc2cc(N3OCC[C@@H]3c3cc(F)cc(F)c3)ncn2)c(OC)cc1N1CCC(N2C[C@@H](C)N(C3CC3)C[C@H]2C)CC1 [Example 114, N-(2-(4-((2R,5R)-4-cyclopropyl-2,5-dimethylpiperazine-1-yl)piperidine-1-yl)-5-((6-((R)-3-(3,5-difluorophenyl)isoxazolidine-2-yl)pyrimidine-4-yl)amino)-4-methoxyphenyl) acrylamide]
A (GI50 < 50 nM)	C=CC(=O)Nc1cc(Nc2cc(N3OCC[C@@H]3c3cccc(Cl)c3Cl)ncn2)c(OC)cc1N1CCN(C2CC2)CC1 [compound 518, N-(2-(4-cyclopropylpiperazine-1-yl)-5-((6-((R)-3-(2,3-dichlorophenyl)isoxazolidine-2-yl)pyrimidine-4-yl)amino)-4-methoxyphenyl) acrylamide]
A (GI50 < 50 nM)	C=CC(=O)Nc1cc(Nc2cc(N3OCC[C@@H]3c3ccc(F)c(Cl)c3)ncn2)c(OC)cc1N1CCC(N2CCN(C)[C@@H](C)C2)CC1 [compound 900, N-(5-((6-((R)-3-(3-chloro-4-fluorophenyl)isoxazolidine-2-yl)pyrimidine-4-yl)amino)-2-(4-((S)-3,4-dimethylpiperazine-1-yl)piperidine-1-yl)-4-methoxyphenyl) acrylamide]
A (GI50 < 50 nM)	C=CC(=O)Nc1cc(Nc2cc(N3OCC[C@@H]3c3cc(F)ccc3F)ncn2)c(OC)cc1N1CCN(C2CC2)C[C@H]1C [compound 880, N-(2-((R)-4-cyclopropyl-2-methylpiperazine-1-yl)-5-((6-((R)-3-(2,5-difluorophenyl)isoxazolidine-2-yl)pyrimidine-4-yl)amino)-4-methoxyphenyl) acrylamide]
A (GI50 < 50 nM)	COc1cc(N2CCC(N3CCN(C4CC4)CC3)CC2)c(NC(=O)/C=C/CN(C)C)cc1Nc1cc(N2OCC[C@@H]2c2cc(F)cc(F)c2)ncn1 [Example 117, N-(2-(4-(4-cyclopropylpiperazine-1-yl)piperidine-1-yl)-5-((6-((R)-3-(3,5-difluorophenyl)isoxazolidine-2-yl)pyrimidine-4-yl)amino)-4-methoxyphenyl)-(E)-4-(dimethylamino) but-2-enamide]
